By IC50 is commonly meant the concentration at which inhibition is half-maximal. In general, Kd refers to the concentration at which binding is half-saturated. What is called Ki is a measure of affinity in units of concentration, obtained from inhibition or displacement. One may read the EC50 as the concentration giving half of the maximal effect. Usually aqueous solubility stands for the concentration that dissolves in the medium under given conditions.

Consider 11 molecules from patent US20190365719A1, “COMBINATION TREATMENTS OF HSP90 INHIBITORS FOR ENHANCING TUMOR IMMUNOGENICITY AND METHODS OF USE THEREOF” (Massachusetts Institute of Technology, priority 2018, published 2019).

Data set [1] concerns MC38 cells. Kind of data set: Flow cytometry of MHC Class I H2-Kb surface expression on MC38 cells. Format: cell-based, mouse. As for the experimental part:
For analysis of MHC Class I surface expression, cells were seeded into 12 well plates (125,000/well). 24-hours later, cells were treated with the indicated concentrations of HSP90i (NVP-HSP990) or DMSO vehicle. 72-hours after treatment, cells were dissociated with Accumax (Innovative Cell Technologies) and each treatment condition was distributed into 2 wells of a 96 well plate. […] After incubation with antibody, cells were washed 1× in ice cold PBS+10% FBS prior to analysis on a MACSQuant VYB flow cytometer. Cytometric data were plotted and analyzed with FloJo.
For analysis of MHC Class I surface expression, cells were seeded into 12 well plates (125,000/well). 24-hours later, cells were treated with the indicated concentrations of HSP90i (NVP-HSP990) or DMSO vehicle. 72-hours after treatment, cells were dissociated with Accumax (Innovative Cell Technologies) and each treatment condition was distributed into 2 wells of a 96 well plate. […] After incubation with antibody, cells were washed 1× in ice cold PBS+10% FBS prior to analysis on a LSR-2 flow cytometer. Cytometric data were plotted and analyzed with FloJo.
A general note: A flow cytometer gives signals particle by particle.

For data set [2] the following is noted: cited from earlier work.
For data set [3] the following is noted: cited from earlier work. This is another data set of the same source.
The test system of the next data set is human HSP90. Particulars: cited from earlier work.
The test system of another data set is TMK-1 xenografts. Particulars: 5 mg/kg or 25 mg/kg thrice per week; cited from earlier work.
The subject of the next data set is tumor growth. The note with it: 25 mg/kg three times a week; cited from earlier work.
The next data set deals with TCL1-SCID transplant. The note with it: 10 mg/kg for 16 days; cited from earlier work.
The conditions of data set [4]: relative to 17-AAG; cited from earlier work.
For data set [5] the following is noted: mono-therapy, cited from earlier work.
In the next data set the test system is A375 cells. Particulars: cited from earlier work.
The target in data set [6] is HSP90. Particulars: binding to HSP90, same site; cited from earlier work.
For data set [7], the target named is HSP90. The note with it: cited from earlier work.
Data set [8] has as its system HSP90. Particulars: cited from earlier work. This is another data set of the same source.
Data set [9] concerns HSP90. Particulars: cited from earlier work. The source holds these as a separate data set.
Data set [10] relates to M229R and 1205LuR xenografts. The note with it: cited from earlier work.
The test system of data set [11] is MC38 cells. The data set is described as follows: Immunoblot analysis of MC38 cells. Format: cell-based, mouse. Particulars: Hsp90i 60 nM or IFN-γ 10 ng/mL. As for the experimental part: Protein extraction was performed by washing cells 2× with PBS. A volume of lysis buffer (50 mM Tris pH 7.5, 150 mM NaCl, 1 mM EDTA, 1% Triton-X100, 0.1% SDS, 1× Halt Protease/Phosphatase inhibitor) equal to 1/10 the culture media volume was added directly to the culture dish and incubated for 2-3 min on ice. Lysates were then thoroughly scraped and pipetted into 1.5 mL tubes and incubated for an additional 30 min on ice. Lysates were then cleared by centrifugation at 14,000×g for 15 min and quantified using BCA Assay. Lysates were separated by SDS-PAGE and transferred to 0.2 μm nitrocellulose membranes prior to washing with PBST, blocking with 5% milk in PBST, and incubation with primary antibody overnight at 4° C. All primary antibodies were diluted 1:1000 in 2.5% milk in PBST. Membranes were then washed 4×5 min with PBST and incubated with HRP conjugated secondary antibody at a 1:10,000 dilution in 2.5% milk in PBST, and washed again 4×5 min with PBST. Detection of secondary antibody was performed with SuperSignal West Pico or Femto ECL reagents (Pierce) and digitally imaged on a ChemiDoc (BioRad).
Immunoblotting was performed as described in Example 4. Briefly, protein extraction was performed by washing cells with PBS and then isolating whole cell lysates in lysis buffer (50 mM Tris pH 7.5, 150 mM NaCl, 1 mM EDTA, 1% Triton-X100, 0.1% SDS, 1× Halt Protease/Phosphatase inhibitor) Lysates were then cleared by centrifugation and quantified using BCA Assay. Lysates were separated by SDS-PAGE and transferred to 0.2 μm nitrocellulose membranes prior to washing with PBST, blocking with 5% milk in PBST, and incubation with primary antibody overnight at 4° C. All primary antibodies were diluted 1:1000 in 2.5% milk in PBST. Membranes were then washed and incubated with HRP conjugated secondary antibody. Detection of secondary antibody was performed with SuperSignal West Pico or Femto ECL reagents (Pierce) and digitally imaged on a ChemiDoc (BioRad).
Background: Immunoblotting shows a protein as a band on a membrane.

Where two headings read alike, the source gives them in different places.

As to `COc1ccc(C[C@H](NC(=O)[C@H](C)NC(=O)CN2CCOCC2)C(=O)N[C@@H](Cc2ccccc2)C(=O)C2(C)CO2)cc1` (stereo in doubt) [ONX-0914], the “effect on HSP90i-caused increase in MHC Class I surface expression” value with MC38 cells [1] (ONX-0914 500 nM with low level HSP90i) was “abrogated the increase in MHC Class I surface expression”.

With `C=CCNC1=C2C[C@@H](C)C[C@H](OC)[C@H](O)[C@@H](C)/C=C(\C)[C@H](OC(N)=O)[C@@H](OC)/C=C\C=C(/C)C(=O)NC(=CC1=O)C2=O` [17-AAG, 17-Allylamino-17-demethoxy-geldanamycin], the “maximum tolerated dose (MTD)” value in data set [2] (IV over 60 minutes on days 1, 4, 8 and 11 of each 21 day cycle) was 150 mg/m^2. The “water solubility (in words)” value in data set [3] is given as “not water-soluble”.

Turning to `CO[C@H]1/C=C\C=C(/C)C(=O)NC2=CC(=O)C(NCCN(C)C)=C(C[C@@H](C)C[C@H](OC)[C@H](O)[C@@H](C)/C=C(\C)[C@@H]1OC(N)=O)C2=O.Cl` [17-DMAG, 17-dimethylaminoethylamino-17-demethoxy-geldanamycin], the IC50 in the data set with human HSP90 (cell-free assay) is 62 nM. Also, in the data set on human HSP90, the “potency against human HSP90 as compared with 17-AAG” value was around 2 times. Further, in the data set on TMK-1 xenografts, the “tumor growth of TMK-1 xenografts” value is “significantly reduces tumor growth”. For the same molecule, the “tumor growth in mice” value in the data set on tumor growth was “significantly suppresses tumor growth”. Further, in the data set with TCL1-SCID transplant, the survival result is reported as “prolongs the survival” and the “white blood cell count” value is on record as “significantly decreases the white blood cell count”. In data set [4], the “plasma half-life, oral bioavailability, metabolism” value was “longer plasma half-life, greater oral bioavailability, and less extensive metabolism”.

With `CC(C)c1cc(C(=O)N2Cc3ccc(CN4CCN(C)CC4)cc3C2)c(O)cc1O` [AT13387], the tolerated dose is reported as at most 90 mg/kg in [5] (once weekly) and “up to 70 mg/kg” in [5] (twice weekly). The IC50 in the data set on A375 cells is 18 nM. In addition, at HSP90 [6], the Kd is 0.7 nM. Further, in data set [2] (six doses in a four-week schedule (day 1, 2, 8, 9, 15, 16)), the RP2D is listed as 160 mg/m2. The R2PD in [2] (twice weekly for 3 weeks in a 4-week regimen, diarrhea, nausea, vomiting, fatigue, systemic infusion reactions) is recorded as 260 mg/m2. Besides, in data set [2] (twice weekly for 3 weeks in a 4-week regimen, visual disturbances), the MTD was 120 mg/m2.

As for `CCNC(=O)c1noc(-c2cc(C(C)C)c(O)cc2O)c1-c1ccc(CN2CCOCC2)cc1` [AUY922], the maximum tolerated dose in data set [2] (once weekly intravenous infusion) is 70 mg/m^2.

For the molecule `COc1c(C)cnc(Cn2cnc3c(Cl)nc(N)nc32)c1C` [BIIB021], in data set [2] (twice-weekly oral dosing schedule), the MTD is on record as 800 mg. Besides, the inhibitory constant (Ki) at HSP90 [7] is […]. Also, the EC50 with HSP90 [8] was […].

As for `C=CCNc1c(O)cc2c(O)c1C[C@@H](C)C[C@H](OC)[C@H](O)[C@@H](C)/C=C(\C)[C@@H](OC(N)=O)[C@H](OC)/C=C\C=C(/C)C(=O)N2.Cl` [IPI-504], the “maximum tolerated dose (MTD) and recommended phase II dose (RP2D)” value in data set [2] (iv, in combination with docetaxel 75 mg/m^2 once every three weeks, phase Ib) is 450 mg/m^2. The “MTD from phase 1 trial” value in data set [2] (monotherapy, intravenous infusion over 30 minutes) was 225 mg/m^2. The “on-treatment deaths, considered drug-related” value in data set [2] (phase III trial, metastatic and/or unresectable GIST) is recorded as “four”. The aqueous solubility in data set [3] is listed as above 200 mg/mL.

For the molecule `CC(C)NCCCn1c(Sc2cc3c(cc2I)OCO3)nc2c(N)ncnc21` [PU-H71], in [2] (intravenous (iv) infusion), the MTD is on record as 350-400 mg/m2. In the data set with HSP90 [9], the IC50 is […].

Consider `CC1(C)CC(=O)c2c(C(F)(F)F)nn(-c3ccc(C(N)=O)c(N[C@H]4CC[C@H](O)CC4)c3)c2C1` [SNX-2112], for which the “MHC-I surface expression on MC38 cells” value in the data set with MC38 cells [1] (60 nM for each drug) is reported as “induced MHC-I”.

In the case of `CC[C@@H](C)Nc1cc(C(=O)NC2CC3CCC(C2)N3c2ccc(C(=O)C3CC3)cn2)c(C)cc1C(N)=O` (stereo partly shown) [XL888], the “growth inhibition of established xenografts” value in [10] (100 mg/kg, SCID mice) was 50%. In addition, the “increase in intratumoral HSP70 expression compared with controls” value in [10] (15 days of treatment) is on record as 8.6 fold.

B1: IFN-γ: cytokine, canonical stimulus of antigen presentation, comparator at 10 ng/mL (protein, UniProt P01580 23-155, looked up)
Interferon gamma: HGTVIESLESLNNYFNSSGIDVEEKSLFLDIWRNWQKDGDMKILQSQIISFYLRLFEVLKDNQAISNNISVIESHLITTFFSNSKAKKDAFMSIAKFEVNNPQVQRQAFNELIRVVHQLLPESSLRKRKRSRC
B1: in the data set with MC38 cells [11], the “expression of downstream markers of IFN-γ signaling (Stat1, Stat3, pStat3, PD-L1)” value is listed as “induced expression of downstream markers of IFN-γ signaling”.
